# Patent US8927717B1, “Thiochromeno[2,3-c]quinolin-12-one derivatives, preparation method and application thereof” (National Defense Medical Center, priority 2014, dated 2015)
# Key:
# Type in all cases: cell-based
# BT-549 = conditions: BT-549
# PC-3 = conditions: PC-3
# OVCAR-5 = conditions: OVCAR-5
# M14 = conditions: M14
# SNB-75 = conditions: SNB-75
# SNB-19 = conditions: SNB-19
# TK-10 = conditions: TK-10
# MDA-MB-486 = conditions: MDA-MB-486
# HL-60(TB) = conditions: HL-60(TB); 10^−5 molar
# SR = conditions: SR
# MCF7 = conditions: MCF7
# RPMI-8226 = conditions: RPMI-8226
# OVCAR-8 = conditions: OVCAR-8
# A498 = conditions: A498
# UO-31 = conditions: UO-31
# NCI-H460 = conditions: NCI-H460
# COLO 205 = conditions: COLO 205
# LOX IMVI = conditions: LOX IMVI
# HS 578T = conditions: HS 578T
# HT29 = conditions: HT29
# SK-MEL-28 = conditions: SK-MEL-28
# SW-620 = conditions: SW-620
# 60 cancer cell lines = test: NCI 60-cell screen, SRB, whole panel (mean, delta, range)
# HCT-15 = conditions: HCT-15
# T-47D = conditions: T-47D
# CCRF-CEM = conditions: CCRF-CEM
# K-562 = conditions: K-562
# RXF 393 = conditions: RXF 393
# MALME-3M = conditions: MALME-3M
# DU-145 = conditions: DU-145
# A549/ATCC = conditions: A549/ATCC
# SN12C = conditions: SN12C
# MOLT-4 = conditions: MOLT-4
# 786-0 = conditions: 786-0
# NCI-H522 = conditions: NCI-H522
# UACC-62 = conditions: UACC-62
# SF-295 = conditions: SF-295
# NCI-H23 = conditions: NCI-H23
# MDA-MB-435 = conditions: MDA-MB-435
# [1] = Homo sapiens, five dose, read-out: LC50 (the source's name)
compound,measurement,setting,value
"O=c1c2cc(Cl)ccc2sc2c(NCCCNCCO)nc3ccccc3c12 [Compound N19, 10-Chloro-6-((3-((2-hydroxyethyl)amino)propyl)amino)-12H-thiochromeno[2,3-c]quinolin-12-one]",Growth percent,BT-549; 10^−5 molar,98.48%
same,TGI,BT-549; five dose,3.15 µM
same,GI50,"BT-549; Homo sapiens, five dose",1.67 µM
same,GI50,"PC-3; Homo sapiens, five dose",1.51 µM
same,CC50,PC-3; [1],5.66 µM
same,Growth percent,PC-3; 10^−5 molar,−26.98%
same,TGI,PC-3; five dose,2.92 µM
same,GI50,"OVCAR-5; Homo sapiens, five dose",1.63 µM
same,CC50,OVCAR-5; [1],7.53 µM
same,Growth percent,OVCAR-5; 10^−5 molar,−65.05%
same,TGI,OVCAR-5; five dose,3.50 µM
same,GI50,"M14; Homo sapiens, five dose",1.83 µM
same,Growth percent,M14; 10^−5 molar,6.12%
same,TGI,M14; five dose,3.53 µM
same,GI50,"SNB-75; Homo sapiens, five dose",1.28 µM
same,Growth percent,SNB-75; 10^−5 molar,23.66%
same,TGI,SNB-75; five dose,2.56 µM
same,GI50,"SNB-19; Homo sapiens, five dose",1.64 µM
same,Growth percent,SNB-19; 10^−5 molar,46.07%
same,TGI,SNB-19; five dose,3.26 µM
same,GI50,"TK-10; Homo sapiens, five dose",2.09 µM
same,CC50,TK-10; [1],6.69 µM
same,Growth percent,TK-10; 10^−5 molar,−92.61%
same,TGI,TK-10; five dose,3.74 µM
same,GI50,"MDA-MB-486; 60 cell, five dose",1.06 µM
same,CC50,"MDA-MB-486; 60 cell, five dose, read-out: LC50 (the source's name)",6.2 µM
same,Growth percent,MDA-MB-486; 10^−5 molar,−24.00%
same,TGI,MDA-MB-486; five dose,2.56 µM
same,Growth percent,HL-60(TB),−37.88%
same,GI50,"SR; Homo sapiens, five dose",1.98 µM
same,Growth percent,SR; 10^−5 molar,−51.40%
same,TGI,SR; five dose,4.55 µM
same,GI50,"MCF7; Homo sapiens, five dose",1.05 µM
same,Growth percent,MCF7; 10^−5 molar,−72.49%
same,TGI,MCF7; five dose,2.60 µM
same,GI50,"RPMI-8226; Homo sapiens, five dose",1.84 µM
same,Growth percent,RPMI-8226; 10^−5 molar,5.53%
same,TGI,RPMI-8226; five dose,4.21 µM
same,GI50,"OVCAR-8; Homo sapiens, five dose",1.75 µM
same,Growth percent,OVCAR-8; 10^−5 molar,9.89%
same,TGI,OVCAR-8; five dose,3.32 µM
same,Growth percent,A498; 10^−5 molar,61.88%
same,TGI,A498; five dose,3.62 µM
same,GI50,"A498; Homo sapiens, five dose",1.27 µM
same,CC50,A498; [1],15 µM
same,GI50,"UO-31; Homo sapiens, five dose",1.36 µM
same,CC50,UO-31; [1],6.35 µM
same,Growth percent,UO-31; 10^−5 molar,24.54%
same,TGI,UO-31; five dose,2.94 µM
same,GI50,"NCI-H460; Homo sapiens, five dose",1.66 µM
same,Growth percent,NCI-H460; 10^−5 molar,−80.98%
same,TGI,NCI-H460; five dose,3.35 µM
same,Growth percent,COLO 205; 10^−5 molar,−87.17%
same,TGI,COLO 205; five dose,3.37 µM
same,GI50,"COLO 205; Homo sapiens, five dose",1.63 µM
same,GI50,"LOX IMVI; Homo sapiens, five dose",1.8 µM
same,Growth percent,LOX IMVI; 10^−5 molar,−82.79%
same,TGI,LOX IMVI; five dose,3.80 µM
same,Growth percent,HS 578T; 10^−5 molar,64.69%
same,TGI,HS 578T; five dose,3.53 µM
same,GI50,"HS 578T; Homo sapiens, five dose",1.29 µM
same,CC50,HS 578T; [1],9.64 µM
same,Growth percent,HT29; 10^−5 molar,−83.53%
same,TGI,HT29; five dose,4.00 µM
same,GI50,"HT29; Homo sapiens, HT-29, five dose",2.05 µM
same,GI50,"SK-MEL-28; Homo sapiens, five dose",1.89 µM
same,Growth percent,SK-MEL-28; 10^−5 molar,−94.33%
same,TGI,SK-MEL-28; five dose,3.56 µM
same,GI50,"SW-620; Homo sapiens, five dose",1.63 µM
same,Growth percent,SW-620; 10^−5 molar,−81.48%
same,TGI,SW-620; five dose,3.30 µM
same,GI50,"60 cancer cell lines; 60 cell, mean over panel, five dose",1.66 µM
same,CC50,"60 cancer cell lines; 60 cell, mean over panel, five dose, read-out: LC50, Mean",9.55 µM
same,"Growth percent, Delta","60 cancer cell lines; delta over panel, 10^−5 molar",75.63%
same,"Growth percent, Mean","60 cancer cell lines; mean over panel, 10^−5 molar",−21.33%
same,"TGI, Mean","60 cancer cell lines; mean over panel, five dose",3.39 µM
same,"Growth percent, Range","60 cancer cell lines; range over panel, 10^−5 molar",195.44%
same,Growth percent,HCT-15; 10^−5 molar,−76.47%
same,TGI,HCT-15; five dose,3.25 µM
same,GI50,"HCT-15; Homo sapiens, five dose",1.61 µM
same,GI50,"T-47D; Homo sapiens, T47D, five dose",1.5 µM
same,Growth percent,T-47D; 10^−5 molar,16.26%
same,TGI,T-47D; five dose,3.43 µM
same,Growth percent,CCRF-CEM; 10^−5 molar,−54.78%
same,TGI,CCRF-CEM; five dose,3.80 µM
same,GI50,"CCRF-CEM; Homo sapiens, five dose",1.83 µM
same,GI50,"K-562; Homo sapiens, K562, five dose",1.73 µM
same,CC50,"K-562; Homo sapiens, K562, five dose, read-out: LC50 (the source's name)",> 100 µM
same,Growth percent,K-562; 10^−5 molar,−66.94%
same,GI50,"RXF 393; Homo sapiens, five dose",1.64 µM
same,Growth percent,RXF 393; 10^−5 molar,43.67%
same,TGI,RXF 393; five dose,3.20 µM
same,GI50,"MALME-3M; Homo sapiens, five dose",2.15 µM
same,Growth percent,MALME-3M; 10^−5 molar,−34.30%
same,TGI,MALME-3M; five dose,4.33 µM
same,Growth percent,DU-145; 10^−5 molar,−71.03%
same,TGI,DU-145; five dose,3.31 µM
same,GI50,"DU-145; Homo sapiens, five dose",1.76 µM
same,CC50,DU-145; [1],6.25 µM
same,Growth percent,A549/ATCC; 10^−5 molar,−64.45%
same,TGI,A549/ATCC; five dose,3.30 µM
same,GI50,"A549/ATCC; Homo sapiens, five dose",1.76 µM
same,GI50,"SN12C; Homo sapiens, five dose",1.7 µM
same,CC50,SN12C; [1],6.8 µM
same,Growth percent,SN12C; 10^−5 molar,78.75%
same,TGI,SN12C; five dose,3.39 µM
same,GI50,"MOLT-4; Homo sapiens, five dose",1.88 µM
same,Growth percent,MOLT-4; 10^−5 molar,−47.57%
same,Growth percent,786-0; 10^−5 molar,−17.60%
same,TGI,786-0; five dose,3.37 µM
same,GI50,"786-0; Homo sapiens, five dose",1.72 µM
same,GI50,"NCI-H522; Homo sapiens, five dose",1.85 µM
same,Growth percent,NCI-H522; 10^−5 molar,−59.68%
same,TGI,NCI-H522; five dose,3.56 µM
same,GI50,"UACC-62; Homo sapiens, five dose",1.81 µM
same,CC50,UACC-62; [1],6.39 µM
same,Growth percent,UACC-62; 10^−5 molar,−77.63%
same,TGI,UACC-62; five dose,3.40 µM
same,GI50,"SF-295; Homo sapiens, five dose",1.73 µM
same,Growth percent,SF-295; 10^−5 molar,−93.00%
same,TGI,SF-295; five dose,3.33 µM
same,GI50,"NCI-H23; Homo sapiens, five dose",1.89 µM
same,Growth percent,NCI-H23; 10^−5 molar,54.26%
same,TGI,NCI-H23; five dose,3.68 µM
same,GI50,"MDA-MB-435; Homo sapiens, five dose",1.59 µM
same,CC50,MDA-MB-435; [1],5.62 µM
same,Growth percent,MDA-MB-435; 10^−5 molar,−88.95%
same,TGI,MDA-MB-435; five dose,2.99 µM
